The values that follow are results of earlier work, collected in PubChem BioAssay AID1259409 (Chemical Carcinogenesis Research Information System (CCRIS), 2018).

Structures are written as SMILES. Values joined by “and” are separate entries in the source; they are usually repeats but may differ in a detail not shown here. Identical values can stand only once.

This data set deals with rodent chemically induced tumor inhibition, incidence and multiplicity. The experiment in a line: CCRIS tumor inhibitor studies. Particulars: Route [Inhibitor]: ORAL, Species: RAT.

As for `O=C(O)c1ccc(O)c(O)c1`, the “tumour outcome (control, treated, inhibition, significance)” value is 63%, 59%, 6%, not significant (Carcinogen: 2-AMINO-1-METHYL-6-PHENYLIMIDAZO[4,5-B]PYRIDINE [105650-23-5], Dose [Inhibitor]: 2,000 PPM IN DIET FOR 4 WK BEGINNING WK PRIOR TO FIRST CARCINOGEN DOSE (STUDY DURATION: 25 WK), Strain/Sex: SPRAGUE-DAWLEY/FEMALE, Target Tissue: Type of Lesion: MAMMARY GLAND: FIBROADENOMA OR DUCTAL CARCINOMA, Dose [Carcinogen]: 85 MG/KG BW 2X/WK FOR 4 WK (STUDY DURATION: 25 WK), Promoter: NONE); 3/19 (16%), 3/20 (15%), 6%, not significant and 16%, 15%, 6%, not significant (Carcinogen: 4-NITROQUINOLINE-1-OXIDE, 56-57-5, Dose [Inhibitor]: 0, 500 PPM IN DIET FOR 10 WK BEGINNING 1 WK PRIOR TO CARCINOGEN TREATMENT (STUDY DURATION: 32 WK), Strain/Sex: F344/MALE, Target Tissue: Type of Lesion: TONGUE: PAPILLOMA, Dose [Carcinogen]: 20 PPM IN DRINKING WATER FOR 8 WK, Promoter: NONE USED); 3/19 (16%), 3/21 (14%), 13%, not significant and 16%, 14%, 13%, not significant (Carcinogen: 4-NITROQUINOLINE-1-OXIDE, 56-57-5, Dose [Inhibitor]: 0, 500 PPM IN DIET FOR 22 WK BEGINNING 1 WK POST CARCINOGEN TREATMENT (STUDY DURATION: 32 WK), Strain/Sex: F344/MALE, Target Tissue: Type of Lesion: TONGUE: PAPILLOMA, Dose [Carcinogen]: 20 PPM IN DRINKING WATER FOR 8 WK, Promoter: NONE USED); 3/19 (16%), 2/19 (11%), 31%, not significant and 16%, 11%, 31%, not significant (Carcinogen: 4-NITROQUINOLINE-1-OXIDE, 56-57-5, Dose [Inhibitor]: 0, 1000 PPM IN DIET FOR 10 WK BEGINNING 1 WK PRIOR TO CARCINOGEN TREATMENT (STUDY DURATION: 32 WK), Strain/Sex: F344/MALE, Target Tissue: Type of Lesion: TONGUE: PAPILLOMA, Dose [Carcinogen]: 20 PPM IN DRINKING WATER FOR 8 WK, Promoter: NONE USED); 3/19 (16%), 4/19 (21%), -31%, not significant (Carcinogen: 4-NITROQUINOLINE-1-OXIDE, 56-57-5, Dose [Inhibitor]: 0, 1000 PPM IN DIET FOR 22 WK BEGINNING 1 WK POST CARCINOGEN TREATMENT (STUDY DURATION: 32 WK), Strain/Sex: F344/MALE, Target Tissue: Type of Lesion: TONGUE: PAPILLOMA, Dose [Carcinogen]: 20 PPM IN DRINKING WATER FOR 8 WK, Promoter: NONE USED); 3/19 (16%), 2/21 (10%), 38%, not significant and 16%, 10%, 38%, not significant (Carcinogen: 4-NITROQUINOLINE-1-OXIDE, 56-57-5, Dose [Inhibitor]: 0, 2000 PPM IN DIET FOR 10 WK BEGINNING 1 WK PRIOR TO CARCINOGEN TREATMENT (STUDY DURATION: 32 WK), Strain/Sex: F344/MALE, Target Tissue: Type of Lesion: TONGUE: PAPILLOMA, Dose [Carcinogen]: 20 PPM IN DRINKING WATER FOR 8 WK, Promoter: NONE USED). Also, the “tumour outcome (control, treated, inhibition, significance)” value reads like this: (Carcinogen: 4-NITROQUINOLINE-1-OXIDE, 56-57-5, Dose [Inhibitor]: 0, 2000 PPM IN DIET FOR 22 WK BEGINNING 1 WK POST CARCINOGEN TREATMENT (STUDY DURATION: 32 WK), Strain/Sex: F344/MALE, Target Tissue: Type of Lesion: TONGUE: PAPILLOMA, Dose [Carcinogen]: 20 PPM IN DRINKING WATER FOR 8 WK, Promoter: NONE USED) 3/19 (16%), 2/20 (10%), 38%, not significant and 16%, 10%, 38%, not significant; (Carcinogen: AZOXYMETHANE, 24843-45-2, Dose [Inhibitor]: 0, 500 PPM IN DIET FOR 28 WK BEGINNING 1 WK POST CARCINOGEN TREATMENT (STUDY DURATION: 32 WK), Strain/Sex: F344/MALE, Target Tissue: Type of Lesion: COLON: ADENOMA, Dose [Carcinogen]: 15 MG/KG BW 1/WK FOR 3 WK, Promoter: NONE USED) 10%, 15%, -50%, not significant; (Carcinogen: AZOXYMETHANE, 25843-45-2, Dose [Inhibitor]: 0, 250 PPM IN DIET FOR 4 WK BEGINNING 1 WK PRIOR TO CARCINOGEN TREATMENT (STUDY DURATION: 32 WK), Strain/Sex: F344/MALE, Target Tissue: Type of Lesion: COLON: ADENOCARCINOMA, Dose [Carcinogen]: 15 MG/KG BW 1/WK FOR 3 WK, Promoter: NONE USED) 75%, 40%, 47%, not significant; (Carcinogen: AZOXYMETHANE, 25843-45-2, Dose [Inhibitor]: 0, 250 PPM IN DIET FOR 4 WK BEGINNING 1 WK PRIOR TO CARCINOGEN TREATMENT (STUDY DURATION: 32 WK), Strain/Sex: F344/MALE, Target Tissue: Type of Lesion: COLON: ADENOMA, Dose [Carcinogen]: 15 MG/KG BW 1/WK FOR 3 WK, Promoter: NONE USED) 10%, 5%, 50%, not significant; (Carcinogen: AZOXYMETHANE, 25843-45-2, Dose [Inhibitor]: 0, 250 PPM IN DIET FOR 4 WK BEGINNING 1 WK PRIOR TO CARCINOGEN TREATMENT (STUDY DURATION: 32 WK), Strain/Sex: F344/MALE, Target Tissue: Type of Lesion: LARGE INTESTINE: ADENOCARCINOMA, Dose [Carcinogen]: 15 MG/KG BW 1/WK FOR 3 WK, Promoter: NONE USED) 15/20 (75%), 8/20 (40%), 47%, not significant; (Carcinogen: AZOXYMETHANE, 25843-45-2, Dose [Inhibitor]: 0, 250 PPM IN DIET FOR 4 WK BEGINNING 1 WK PRIOR TO CARCINOGEN TREATMENT (STUDY DURATION: 32 WK), Strain/Sex: F344/MALE, Target Tissue: Type of Lesion: LARGE INTESTINE: ADENOMA, Dose [Carcinogen]: 15 MG/KG BW 1/WK FOR 3 WK, Promoter: NONE USED) 2/20 (10%), 1/20 (5%), 50%, not significant. Moreover, the “tumour outcome (control, treated, inhibition, significance)” value was 6/20 (30%), 7/20 (35%), -17%, not significant (Carcinogen: AZOXYMETHANE, 25843-45-2, Dose [Inhibitor]: 0, 250 PPM IN DIET FOR 4 WK BEGINNING 1 WK PRIOR TO CARCINOGEN TREATMENT (STUDY DURATION: 32 WK), Strain/Sex: F344/MALE, Target Tissue: Type of Lesion: SMALL INTESTINE: ADENOCARCINOMA, Dose [Carcinogen]: 15 MG/KG BW 1/WK FOR 3 WK, Promoter: NONE USED); 1/20 (5%), 0/20 (0%), 100%, not significant (Carcinogen: AZOXYMETHANE, 25843-45-2, Dose [Inhibitor]: 0, 250 PPM IN DIET FOR 4 WK BEGINNING 1 WK PRIOR TO CARCINOGEN TREATMENT (STUDY DURATION: 32 WK), Strain/Sex: F344/MALE, Target Tissue: Type of Lesion: SMALL INTESTINE: ADENOMA, Dose [Carcinogen]: 15 MG/KG BW 1/WK FOR 3 WK, Promoter: NONE USED); 75%, 40%, 47%, not significant (Carcinogen: AZOXYMETHANE, 25843-45-2, Dose [Inhibitor]: 0, 250 PPM IN DIET FOR 28 WK BEGINNING 1 WK POST CARCINOGEN TREATMENT (STUDY DURATION: 32 WK), Strain/Sex: F344/MALE, Target Tissue: Type of Lesion: COLON: ADENOCARCINOMA, Dose [Carcinogen]: 15 MG/KG BW 1/WK FOR 3 WK, Promoter: NONE USED); 10%, 20%, -100%, not significant (Carcinogen: AZOXYMETHANE, 25843-45-2, Dose [Inhibitor]: 0, 250 PPM IN DIET FOR 28 WK BEGINNING 1 WK POST CARCINOGEN TREATMENT (STUDY DURATION: 32 WK), Strain/Sex: F344/MALE, Target Tissue: Type of Lesion: COLON: ADENOMA, Dose [Carcinogen]: 15 MG/KG BW 1/WK FOR 3 WK, Promoter: NONE USED); 15/20 (75%), 8/20 (40%), 47%, not significant (Carcinogen: AZOXYMETHANE, 25843-45-2, Dose [Inhibitor]: 0, 250 PPM IN DIET FOR 28 WK BEGINNING 1 WK POST CARCINOGEN TREATMENT (STUDY DURATION: 32 WK), Strain/Sex: F344/MALE, Target Tissue: Type of Lesion: LARGE INTESTINE: ADENOCARCINOMA, Dose [Carcinogen]: 15 MG/KG BW 1/WK FOR 3 WK, Promoter: NONE USED); 2/20 (10%), 4/20 (20%), -100%, not significant (Carcinogen: AZOXYMETHANE, 25843-45-2, Dose [Inhibitor]: 0, 250 PPM IN DIET FOR 28 WK BEGINNING 1 WK POST CARCINOGEN TREATMENT (STUDY DURATION: 32 WK), Strain/Sex: F344/MALE, Target Tissue: Type of Lesion: LARGE INTESTINE: ADENOMA, Dose [Carcinogen]: 15 MG/KG BW 1/WK FOR 3 WK, Promoter: NONE USED). In addition, the “tumour outcome (control, treated, inhibition, significance)” value by setting is: (Carcinogen: AZOXYMETHANE, 25843-45-2, Dose [Inhibitor]: 0, 250 PPM IN DIET FOR 28 WK BEGINNING 1 WK POST CARCINOGEN TREATMENT (STUDY DURATION: 32 WK), Strain/Sex: F344/MALE, Target Tissue: Type of Lesion: SMALL INTESTINE: ADENOCARCINOMA, Dose [Carcinogen]: 15 MG/KG BW 1/WK FOR 3 WK, Promoter: NONE USED) 6/20 (30%), 5/20 (25%), 17%, not significant; (Carcinogen: AZOXYMETHANE, 25843-45-2, Dose [Inhibitor]: 0, 250 PPM IN DIET FOR 28 WK BEGINNING 1 WK POST CARCINOGEN TREATMENT (STUDY DURATION: 32 WK), Strain/Sex: F344/MALE, Target Tissue: Type of Lesion: SMALL INTESTINE: ADENOMA, Dose [Carcinogen]: 15 MG/KG BW 1/WK FOR 3 WK, Promoter: NONE USED) 1/20 (5%), 0/20 (0%), 100%, not significant.
